Data on two molecules can be found in patent US20080070949A1, “POLYMORPHS OF RIMONABANT” (Cipla Limited, priority 2006, published 2008).

Common to all, as to format: physicochemical
Data set [1] can be described thus: Comparative intrinsic dissolution study (HPLC-UV method). The note with it: 900 ml of 1% Sodium Lauryl Sulphate in 0.05 M NaH2PO4 buffer pH 6.6, 50 RPM, 37° C. The protocol:
Intrinsic dissolution was studied using an HPLC-UV method with the following parameters:
Dissolution media:—900 ml of 1% Sodium Lauryl Sulphate (SLS) in buffer.
Buffer: 0.05 M NaH2PO4 pH 6.6 with NaOH
Mobile Phase:Buffer:Acetonitrile 30:70 Buffer 0.02 M NaH2PO4 0.1% Triethylamine pH 2.5 with phosphoric acid.
Column: YMC Pack Pro 18 15 cm.
Pressure applied for preparation of pellet=2.5 tonns for 5 mins.
Filter=Whatman 0.45 micron.
The results of the intrinsic dissolution study are illustrated in the graph in FIG. 5.

A short description of data set [2]: Long term stability testing. Particulars: 30±2C., 65±5% relative humidity. The procedure:
(§1) Long term and accelerated stability testing was carried out on crystalline rimonabant Form C.
(§2) Each sample was hermetically sealed in double HMHDPE bags and placed in fibre drum. Quantity of sample=0.8 gm per analysis. Storage conditions (long term)=30±2C., 65±5% relative humidity. Storage conditions (accelerated)=40±2° C., 75±5% relative humidity.

Data set [3] is described as follows: Accelerated stability testing. The note with it: 40±2° C., 75±5% relative humidity. The protocol:
as §1, §2

Setting [4] is: initially, at 1 month, at 2 months and at 3 months.

`Cc1c(C(=O)NN2CCCCC2)nn(-c2ccc(Cl)cc2Cl)c1-c1ccc(Cl)cc1` [amorphous, N-piperidino-5-(4-chlorophenyl)-1-(2,4-dichlorophenyl)-4-methyl-3-pyrazolecarboxamide]: in data set [1], the “order of intrinsic dissolution” value is “amorphous >Form C >Form I”.

In the case of `Cc1c(C(=O)NN2CCCCC2)nn(-c2ccc(Cl)cc2Cl)c1-c1ccc(Cl)cc1` [Form C, N-piperidino-5-(4-chlorophenyl)-1-(2,4-dichlorophenyl)-4-methyl-3-pyrazolecarboxamide], the “Assay (98.0%–102.0% w/w)” value in data set [2] (Initial) is 99.86 % w/w; in data set [2] (period of keeping (3 months)), 99.13 % w/w; in data set [3] (1 Month) it was 101.36 % w/w; in data set [3] (2 Months), 100.67 % w/w; in data set [3] (3 Months) it was 99.45 % w/w; in data set [3] (Initial), 99.86 % w/w. Moreover, the “Chromatographic purity by HPLC Individual impurity NMT 0.10%” value in data set [2] (Initial), in data set [2] (period of keeping (3 months)), in data set [3] (1 Month), in data set [3] (2 Months), in data set [3] (3 Months) and in data set [3] (Initial) was 0.08% each time. Further, the “Chromatographic purity by HPLC Total impurities NMT 1.00%” value in data set [2] (Initial) is 0.20%; in data set [2] (period of keeping (3 months)), 0.20%; in data set [3] (1 Month), 0.16%; in data set [3] (2 Months), 0.21%; in data set [3] (3 Months), 0.20%; in data set [3] (Initial), 0.20%. Besides, the “Water Content (By KF) NMT 5.0% w/w” value in data set [2] (Initial) is 3.08 % w/w; in data set [2] (period of keeping (3 months)), 3.08 % w/w; in data set [3] (1 Month), 3.94 % w/w; in data set [3] (2 Months), 4.27 % w/w; in data set [3] (3 Months), 4.07 % w/w; in data set [3] (Initial), 3.08 % w/w. Also, the description of sample entry in data set [2] (initially and at 3 months) is “white colour powder”; in data set [3] (setting [4]) it was “white colour powder”. The “polymorphic identity confirmed by XRPD, IR and DSC” value in data set [2] (initially and at 3 months) is listed as “Form C”; in data set [3] (setting [4]), “Form C”. In addition, in data set [2] (period of keeping (3 months)), the Remarks result is on record as “Product is stable”.
